Experimental data as given in patent publication US11717635B2, “Argon combined with thrombectomy in the event of ischaemic stroke” (L'Air Liquide, Société Anonyme pour l'Etude et …, priority 2019, dated 2023).

Tested on: transient focal cerebral ischaemia (occlusion of the middle cerebral artery)
Assay: Transient focal cerebral ischaemia (microcoil occlusion of the right MCA, 90 min, then reperfusion mimicking mechanical thrombectomy) with MRI and behavioural follow-up
Assay type: in vivo, rhesus macaques
Experimental: The primates used in the study are rhesus macaques, in which it has been possible to obtain a stable and reproducible model of reversible ischaemia mimicking an ischaemic stroke and its reperfusion by mechanical thrombectomy, as explained below. After approval of the project by the ethics committee for animal experimentation, 6 rhesus macaques were randomized in 2 groups of 3 animals per group, namely: • a group treated with argon or “argon group” inhaling, for 90 min in total, a binary gas mixture formed of 60% argon and 40% oxygen (vol. %), the inhalation of the gas beginning 30 min after the start of the ischaemia and extending during and after the thrombectomy procedure (with or without thrombolysis); • a “control group” inhaling a gas mixture formed of 60% nitrogen and 40% oxygen (vol. %). These groups are subjected to a model of transient focal cerebral ischaemia without craniectomy consisting of an occlusion under anaesthesia of the middle cerebral artery (MCA) by deploying a rigid microspring, called a “microcoil”, until the arterial blood flow stops, in the M2 segment of the right MCA. After 90 min of ischaemia, which is the usual average time between the first signs of an ischaemic stroke and the cerebral reperfusion, the “microcoil” was removed and the revascularization confirmed by arteriography. This procedure mimics a blood clot and its removal by mechanical thrombectomy. All the animals are monitored by high-resolution MRI (Prisma 3 Tesla, Siemens) several days before and directly after the ischaemia (3[…], TOF) in order to quantify the cerebral volume made ischaemic (i.e. restriction of the apparent diffusion coefficient) and the cerebral oedema ([…]). Moreover, the functional recovery was monitored in the acute phase in 1 control animal and over the long-term in two animals of the argon group, that is to say over the course of 3 months post-ischaemia. The evaluations were carried out in terms of the clinical and functional neurological recovery with behavioural tests evaluating their fine sensory-motor performances.

In the case of `[Ar]` [argon], the lesion volume (argon group (60% argon/40% oxygen, 90 min), control group about 5 ml) is reported as “about 1 ml”, the “performances in the behavioural tests (fine sensory-motor) post-ischaemia compared with baseline” value (argon group animals monitored 3 months post-ischaemia) is reported as “not significantly impaired” and the “blood-brain barrier state on MRI images” value (argon group, rupture observed in the control group) is reported as “preserved”. The “decrease in the volume of cerebral oedema compared to the control group” value (inhaled 60% argon/40% oxygen for 90 min, begun 30 min after start of ischaemia, MRI T2-FLAIR, P<0.05 vs control) was 85 % reduction, the “decrease in the cerebral volume infarcted compared to the control group” value (inhaled 60% argon/40% oxygen for 90 min, begun 30 min after start of ischaemia, MRI, P<0.05 vs 60% nitrogen/40% oxygen control) was 83 % reduction and the “clinical and functional neurological recovery” value (two animals of the argon group monitored 3 months post-ischaemia, deficit = left leg paresis) was “rapid recovery with only a minor and transient neurological deficit”.
